Entries after “also recorded” stand apart in the source; their conditions may differ.
Assays:
db/db mice [1] = assay: Metabolic data (body weight, water intake, urine output, non-fasting blood glucose) in db/db mouse Type 2 diabetes model; format: in vivo
Source text: Given its effectiveness in the model of renal ischemia and reperfusion, it was hypothesized that compound SUL 121 will also protect the kidney in an experimental model of obesity induced Type 2 diabetes (T2DM). Therefore, the effects of SUL121 on the development of albuminuria and renal damage in the mouse Type 2 diabetes model was studied. For the study, the db/db mouse model was employed. […] Diabetes starts at the age of 6-8 weeks and adequate levels of kidney damage and albuminuria can be observed at the age of 18 weeks.
To study the effects of SUL121 on the development of diabetes, treatment with SUL121 started from the age of 10 weeks until the age of 18 weeks. In addition, to study the effects of SUL 121 on healthy animals, control mice were treated similarly. A non-treated control group was included in the study, to serve as healthy untreated control. Drug and vehicle were administered by implantation of osmotic minipumps at the age of 10 and 14 weeks.
(§1) Cell culture grade DMSO was obtained from Sigma-Aldrich (Zwijndrecht, the Netherlands). 0.9% sterile saline solutions were from Baxter (Utrecht, the Netherlands). (6-hydroxy-2,5,7,8-tetramethylchroman-2-yl)(piperazin-1-yl)methanone (SUL121) was supplied by Sulfateq BV, Groningen, the Netherlands supplied in a formulation of 500 mM in 100% DMSO corresponding to 177 g/l. Osmotic minipumps (Alzet, USA) are resistant to DMSO concentrations≤50%. Therefore, the solubility of SUL121 was tested in 50% DMSO in saline solution. SUL121 was completely soluble in 50% DMSO up to a concentration of 12.6 g/1. Alzet model 2004 pumps were loaded with 200 μl of 12.6 g/1 SUL121 solution or with 200 ul 50% DMSO solution (vehicle). According to pump specifications 6 μl of SUL121 was administered per day, resulting in a daily dose of 2.2 mg/kg/day for a 35 gram mouse.
(§2) Male db/db mice (n=16) and lean heterozygous control animals (n=16) were purchased from Harlan UK (strain JAX000642). All mice were housed individually. Water and food were given ad-libitum. Four groups of mice were investigated: • 1) db/db+vehicle (diabetic control) • 2) db/db+Sul121 (treated diabetic group) • 3) wt+vehicle (non-diabetic control) • 4) wt+Sul121 (to study effect of drug only) Drug and vehicle were administered by implantation of osmotic minipumps at the age of 10 (t=0) and 14 weeks (t=4). Metabolic cages and blood pressure measurements were performed every two weeks. Blood samples could not be obtained by cheek puncture, therefore blood was collected from the retro orbital plexus at the age of 10 (t=0) and 12 weeks (t=2). At the age of 18 weeks (t=8) all animals were terminated and blood was collected by cardiac puncture. Urinary Measurements
(§3) Urinary glucose concentrations were measured by the glucose oxidase method with a specific electrode from 24-h urine collections after the samples were stored in −20° C. The urinary creatinine concentration was measured by standard laboratory methods (Jaffe method without deproteinization, DiaSys Diagnostic Systems, Holzheim, Germany). The median values of the 24-h urine collections and of the albumin-to-creatinine ratio were calculated. In addition, mouse albumin levels in urine were determined manually using a mouse albumin Elisa kit (Abcam, Cambridge, UK). Urinary hydrogen peroxide levels were determined using an Amplex Red H2O2 assay kit (Life technologies, Leusden, the Netherlands).

rat kidney = settings: blood flow stopped and restored; cited from earlier work
db/db mice [2] = assay: Renal histology: PAS staining, focal glomerulosclerosis (FGS) score; format: in vivo, mouse; settings: diabetic mice
Source text: Four-micrometer-thick formalin fixed sections were deparaffinized and stained for periodic acid-Schiff (PAS) for quantification of focal glomerulosclerosis (FGS) and tubular injury. FGS was semiquantitatively scored in a blinded fashion by determining the level of mesangial expansion and focal adhesion in each quadrant in a glomerulus and expressed on a scale from 0 to 4. If 25% of the glomerulus was affected, it was scored as 1, 50% as 2, 75% as 3, and 100% as 4. In total, 50 glomeruli per kidney were analyzed, and the total FGS score was calculated by multiplying the score by the percentage of glomeruli with the same FGS score. Thus the total FGS score ranged from 0 to 200.

[3] = tested on: mouse renal mesangial cells; assay: In-vitro model of diabetes: intracellular ROS under high glucose and insulin; format: cell-based
Source text: To further explore the mechanisms through which SUL 121 mediates renal protection in diabetes, an in-vitro model of diabetes was employed. For this, mouse renal mesangial cells were exposed to conditions simulating type 2 diabetes (high glucose and insulin). Exposure to high glucose/insulin increased intracellular ROS levels by approximately 70% (FIG. 7).

db/db mice [4] = assay: Plasma hydrogen peroxide (ROS production in diabetes); format: in vivo, mouse; settings: diabetic mice
Procedure: as §3
Enhanced reactive oxygen species (ROS) production is a well-established phenomenon in diabetes. To study the effects of SUL121 treatment on ROS production, hydrogen peroxide, a stable metabolite of ROS, was measured in plasma (FIG. 6). SUL 121 treatment normalized H2O2 levels in plasma.

db/db mice [5] = assay: Organ (kidney) weights at termination; format: in vivo, mouse; settings: diabetic mice, after 8 weeks of treatment
Procedure: as §2
After 8 weeks of treatment, mice were terminated and organ weights were measured (FIG. 2). […] SUL 121 treatment normalized kidney weights to non-diabetic control values.

db/db mice [6] = assay: Urinary albumin excretion and albumin/creatinine ratio; format: in vivo, mouse
Procedure: as §2, §3
To test whether SUL 121 treatment could reduce renal damage, albumin leakage into the urine was measured at all time points for diabetic animals. Total albumin excretion per day (AER) was calculated by multiplying urinary albumin concentration with daily urinary output (FIG. 3A).

[7] = Solubility of SUL121 in 50% DMSO in saline solution; format: physicochemical; settings: aqueous with cosolvent or surfactant or cyclodextrin, kinetic from dmso stock, read-out: solubility in 50% DMSO (completely soluble up to)
Procedure: as §1

mouse aortic rings = assay: Organ bath experiments with the isolated aorta of treated mice (ACh relaxation after PE precontraction); format: in vivo; settings: for max. relaxation to ACh (remaining % of PE preconstriction): aortic rings
Procedure: Freshly isolated thoracic aortic rings (1.5-2 mm in length) were mounted on 200-μm stainless wires in individual myograph baths (Danish Myo Technology, Aarhus, Denmark). Briefly, baths containing 6 ml Krebs solution were warmed to 37° C. and preequilibrated and continuously aerated with 95% O2-5% CO2 to maintain pH at 7.4. The length of the aortic strips was assessed by microscopy. Aortic rings were equilibrated for 40 min until they were at a steady baseline. Rings were then primed and checked for viability by two consecutive stimulations with KCl (60 mM) followed by washings and renewed stabilization to obtain reproducible contractile responses.
Contraction responses were measured as cumulative concentration-response curves to phenylephrine (PE; 10 nM-100 μM) followed by a single concentration of KCl (90 mM). Endothelium-dependent relaxation was assessed by obtaining concentration-response curves to ACh (10 nM-300 μM) in rings precontracted with PE (1 μM) followed by stimulation with a high concentration of the NO donor sodium nitroprusside (SNP; 0.1 mM) to assess maximal endothelium-independent dilation.
To study the role of the endothelium in vasoconstrictor effects, rings were denuded by removing the endothelial cell layer by rubbing the luminal side of the vessel with a moistened wire. To examine the contribution of different EDRFs in modulating vasoconstrictor responses and mediating endothelium-dependent relaxation, inhibitors of PG and NO synthesis were used. To this end, PG components were assessed by preincubating rings (20 min.) with the nonspecific cyclooxygenase inhibitor indomethacin (10 μM). The NO component was examined by subsequent incubation with both NO synthesis inhibitor NG-monomethyl-L-arginine (L-NMMA; 1 μM) and indomethacin. The remaining ACh-mediated relaxation was attributed to an unidentified EDHF.
Contractions to KCl and PE are given in milliNewtons. Relaxation responses to ACh and SNP are expressed as percentages of the preconstriction with PE. In addition to that, the area under each individual curve (AUC; in arbitrary units) was determined for ACh-induced relaxation (SigmaPlot version 10.0, Systat Software, San Jose, Calif.). The AUC was used to present total endothelium-dependent relaxation and for the subsequent analysis of differences in ACh-mediated relaxation with and without inhibitors present to estimate the contribution of the different EDRFs, i.e., PGs for the part sensitive to cycloxygenase inhibition with indomethacin, NO for the part sensitive to NOS inhibition with L-NMMA, and EDHF by means of exclusion of PG and NO (34).

db/db mice [8] = assay: Arterial blood pressure by tail-cuff method; format: in vivo, mouse
Procedure: as §2
Arterial blood pressure was measured in anaesthetized mice (2% isoflurane) by means of the tail-cuff method (PS-200A; Riken-Kaihatsu; Tokyo, Japan). For each animal, blood pressure values represent the mean of three to ten recordings obtained in a single session.

Compound: Cc1c(C)c2c(c(C)c1O)CCC(C)(C(=O)N1CCNCC1)O2 (stereo not shown) [SUL121, (6-hydroxy-2,5,7,8-tetramethylchroman-2-yl)(piperazin-1-yl)methanone]
- effect on urine output and water intake (db/db mice [1]; all time points other than week 8): did not significantly affect
- effect on blood glucose levels (db/db mice [1]; diabetic db/db mice): did not affect
- non-fasting blood glucose level (db/db mice [1]; diabetic db/db mice, end of the experiment): 35.3 ± 1.1 mM
- non-fasting blood glucose level (db/db mice [1]; diabetic db/db mice, start of the experiment): 27.2 ± 1.3 mM
- urine output (db/db mice [1]; diabetic db/db mice, week 8): 11.2 ± 3.8 g
- water intake (db/db mice [1]; diabetic db/db mice, week 8): 10.9 ± 3.9 g
- reduction of ischemia and reperfusion damage (rat kidney): very effective
- effect on focal glomerular sclerosis (FGS) scores (db/db mice [2]): significantly reduced
- effect on focal glomerular sclerosis (FGS) scores (db/db mice [2]; listed as SUL 121): significantly lowered
- effect on high glucose/insulin induced increase of intracellular ROS ([3]; cells pretreated, high glucose and insulin): substantially inhibited; also recorded: normalized
- effect on intracellular ROS production, compound alone ([3]; without high glucose/insulin): did not affect
- effect on plasma H2O2 levels (db/db mice [4]): normalized
- effect on kidney weights (kidney hypertrophy) (db/db mice [5]): normalized
- effect on total albumin excretion per day (AER) (db/db mice [6]; diabetic animals, weeks 6 and 8): prevented the progression
- albumin/creatinine ratio (ACR) (db/db mice [6]; diabetic mice, week 6): 534 ± 79 µg/mg
- albumin/creatinine ratio (ACR) (db/db mice [6]; diabetic mice, week 8 (not statistically significant vs diabetic control)): 866 ± 91 µg/mg
- effect on AER (db/db mice [6]; non-diabetic animals): did not affect
- total albumin excretion per day (AER) (db/db mice [6]; non-diabetic animals, week 8): 31.3 ± 4.6 µg/day
- albumin/creatinine ratio (ACR) (db/db mice [6]; wild type animals, week 8): 55 ± 6 µg/mg
- solubility [7]: ≥ 12.6 mg/mL
- effect on NO and prostaglandin components of relaxation (mouse aortic rings; diabetic animals): non-significant (p=0.06) increase
- effect on EDHF component of total relaxation (mouse aortic rings; diabetic animals, with L-NMMA and indomethacin): significantly increasing
- effect on endothelium mediated relaxation (mouse aortic rings; diabetic mice): restores
- max. relaxation to ACh (remaining % of PE preconstriction) (mouse aortic rings; treated diabetic group): 11.3±2.3%
- max. relaxation to ACh (remaining % of PE preconstriction) (mouse aortic rings; treated non-diabetic controls): 9.2±1.6%
- effect on blood pressure (db/db mice [8]; diabetic mice): did not affect
- effect on blood pressure (db/db mice [8]; non-diabetic wild type mice, week 2): lowered
- effect on blood pressure (db/db mice [8]; week 6): did not affect

From patent publication US10676452B2, “Compound for the prophylaxis or treatment of organ damage” (Sulfateq B.V., priority 2015, dated 2020)
